Data published in article PMC8808171, “Nonselective TRPC channel inhibition and suppression of aminoglycoside-induced premature termination codon readthrough by the small molecule AC1903” (The Journal of Biological Chemistry, 2022).

How the values were obtained:
[1] = test system: DMS-114 cells (TP53 R213X); assay: G418-induced PTC readthrough (full-length p53, capillary electrophoresis Western) in DMS-114 cells; assay type: cell-based, human; settings: for suppression of PTC readthrough induced by 400 μg/ml G418: 3 h preincubation with inhibitor, screen at two concentrations (Fig. 1C)
Source text: (§1) Variation in PTC readthrough response has been reported among individuals or cell lines with different nonsense mutations. Although this in part highlights the importance of the stop codon and its surrounding sequence as well as the physical location of the nonsense mutation in the mRNA sequence, understanding the contribution of other underlying genetic variations becomes more complicated. To rule out the effect of the sequence and position of nonsense mutations on response variation to potential PTC readthrough modulators, we studied two cancer cell lines, DMS-114 and TC-71, with identical homozygous nonsense mutation R213X in their TP53 gene. […] To find out whether the reduced response to G418 in TC-71 cells was associated with lower intracellular levels of G418, we measured concentrations of G418 in both cell lines at 0, 8 and 24 h post exposure to G418 (100 μg/ml).
Figure 1 Effect of TRPC inhibitors on G418 induced PTC readthrough. A, DMS-114 and TC-71 cell lines with homozygous TP53 nonsense mutation (R213X) were exposed to indicated concentrations of G418 for 24 h and p53 levels (full-length, FL-p53; truncated, TR-p53) were measured. B, 100 μg/ml G418 was added to DMS-114 and TC-71 cells and its total intracellular levels were measured at indicated time points (n = 5; data normalized to the highest response in each experiment; bars represent mean ± SD). C, DMS-114 cells were preincubated with indicated concentrations of TRPC inhibitors GFB-8438 (GFB), SAR7334 (SAR), SKF96365 (SKF), 2-APB, or AC1903 for 3 h followed by exposure to 400 μg/ml G418 for another 3 h. At 24 h cell lysates were prepared and p53 levels were measured. In panels A and C, protein levels were measured by automated capillary electrophoresis Western analysis (using vinculin and GAPDH as loading controls). Samples of cell lysates containing equal amounts of total protein were loaded in all capillaries and FL-p53 levels were expressed relative to the amount of FL-p53 in untreated cells. ∗ indicates statistically significant difference between samples according to two-way ANOVA (p < 0.05). PTC, premature termination codon; TRPC, transient receptor potential canonical.
To further investigate AC1903 as a suppressor of G418-induced PTC readthrough, we exposed DMS-114 and TC-71 cells to various concentrations of AC1903 for 3 h prior to exposure to 400 μg/ml G418 for another 3 h, followed by media replacement and incubation for another 18 h.
(§2) Figure 2 Effect of AC1903 on PTC readthrough and G418 trafficking.A and B, DMS-114 (A) or TC-71 (B) cells were pretreated with indicated concentrations of AC1903 for 3 h followed by exposure to 400 μg/ml G418. After 3 h medium was replenished and at 24 h cell lysates were prepared and p53 levels were measured. C and E, DMS-114 (C) or JEB01 (E) cells were either left untreated or pretreated with 150 μM AC1903 for 3 h followed by exposure to indicated concentrations of G418 for another 3 h. At 24 h cell lysates were prepared and p53 (C) or Collagen XVII (E) levels were measured. In panels A–C, protein levels were measured by automated capillary electrophoresis Western analysis (using vinculin as loading control). In panel E, protein levels were measured by Western blot (using beta-actin as loading control). Samples of cell lysates containing equal amounts of total protein were loaded in all capillaries and FL-p53 or Collagen XVII levels were expressed relative to their respective amounts in untreated cells. D, total intracellular levels of G418 were measured in the same lysates as in (C) (n = 5; data normalized to the highest response in each experiment; bars represent mean ± SD). F, total intracellular levels of G418 were measured in the same lysates as in (E) (n = 2; data normalized to the highest response in each experiment; bars represent mean ± SD). ∗ indicates statistically significant difference between samples according to one-way ANOVA (p < 0.05). PTC, premature termination codon. […]

TC-71 cells (TP53 R213X) = assay: G418-induced PTC readthrough (full-length p53, capillary electrophoresis Western) in TC-71 cells; assay type: cell-based; settings: increasing concentrations of G418, 24 h
Source text: as §1
(§3) Figure 1 Effect of TRPC inhibitors on G418 induced PTC readthrough. A, DMS-114 and TC-71 cell lines with homozygous TP53 nonsense mutation (R213X) were exposed to indicated concentrations of G418 for 24 h and p53 levels (full-length, FL-p53; truncated, TR-p53) were measured. B, 100 μg/ml G418 was added to DMS-114 and TC-71 cells and its total intracellular levels were measured at indicated time points (n = 5; data normalized to the highest response in each experiment; bars represent mean ± SD). […]

TC-71 cells = assay: Measurement of intracellular G418 (gentamicin ELISA) in TC-71 cells; assay type: cell-based, human; settings: 100 μg/ml G418
Source text: as §1, §3

[2] = test system: DMS-114 cells (TP53 R213X); assay: G418-induced PTC readthrough (full-length p53, capillary electrophoresis Western) in DMS-114 cells; assay type: cell-based, human
hTRPV4 = test system: hTRPV4; set-up: method as in PMID 23136043, PMID 28523109; settings: cited from earlier work
DMS-114 cells = assay: Measurement of intracellular G418 (gentamicin ELISA) in DMS-114 cells; assay type: cell-based, human; settings: Pico145 up to 3 μM, 400 μg/ml G418 (Fig. 3B)
Description: as §2, with “Samples of cell lysates containing equal amounts of total protein were loaded in all capillaries and FL-p53 or Collagen XVII levels were expressed relative to their respective amounts in untreated cells.” left out, “0.05).” for “0.05). PTC, premature termination codon.”

In the case of `NCCOB(c1ccccc1)c1ccccc1` [2-APB], the “suppression of PTC readthrough induced by 400 μg/ml G418” value (“suppression of PTC readthrough induced” below) [1] is reported as ~66%.

For `CN[C@@H]1[C@@H](O)[C@@H](O[C@@H]2[C@@H](O)[C@H](O[C@H]3O[C@H]([C@@H](C)O)[C@@H](O)[C@H](O)[C@H]3N)[C@@H](N)C[C@H]2N)OC[C@]1(C)O` [G418], the “increase in production of full-length p53 (readthrough product) compared with untreated cells” value ([1]; increasing concentrations of G418, 24 h) was “up to 144 fold”, the “increase in PTC readthrough compared to untreated cells” value (TC-71 cells (TP53 R213X)) was “up to eightfold” and the “intracellular G418 level lower in TC-71 compared with DMS-114” value (TC-71 cells; 8 h post exposure) was ~11%. The “intracellular G418 level lower in TC-71 compared with DMS-114” value (TC-71 cells; 24 h post exposure) was ~9%.

With `O=C1CN(c2cn[nH]c(=O)c2Cl)CCN1Cc1ccccc1C(F)(F)F` [GFB-8438] the “suppression of PTC readthrough induced” value [1] was “no effect”.

In the case of `O=C(NC1(c2ccccc2)CC1)c1c(CN2CCC(N3CCCCC3)CC2)c(-c2cccc(C(F)(F)F)c2)nc2cc(Br)ccc12` [GSK2193874], the “effect on full-length p53 production” value ([2]; 0.03–3 μM GSK2193874 alone or in combination with 400 μg/ml G418 (Fig. S12)) is listed as “did not have a major effect” and the IC50 (hTRPV4) is listed as 40 nM.

For `Cn1c(=O)n(CCCO)c(=O)c2c1nc(Oc1cccc(OC(F)(F)F)c1)n2Cc1ccc(Cl)cc1` [Pico145], the “effect on PTC readthrough” value ([2]; Pico145 up to 3 μM, 400 μg/ml G418 (Fig. 3A)) was “did not affect” and the “effect on intracellular G418 levels” value (DMS-114 cells) was “did not affect”.

In the case of `N#Cc1ccc(O[C@@H]2c3ccccc3C[C@H]2N2CCC[C@@H](N)C2)c(Cl)c1` [SAR7334], the “suppression of PTC readthrough induced” value [1] is reported as “no effect”.

For `COc1ccc(CCCOC(Cn2ccnc2)c2ccc(OC)cc2)cc1` (stereo not drawn) [SKF96365], the “suppression of PTC readthrough induced” value [1] was ~33%.
